US20260206757A1, “METHODS OF CONTROLLING UNDESIRABLE PLANTS WITH PPO HERBICIDES AND COMBINATIONS IN HERBICIDE TOLERANT CROP PLANTS” (BASF AGRO B.V., priority 2022, published 2026)

What was measured:
Portulaca oleracea = assay: Greenhouse experiment, post emergence herbicidal activity; type: in vivo; conditions: POROL, BBCH 12-14, Flumioxazin 4, Bifenox 168 g ai/ha
Protocol: (§1) For the post emergence treatment, the plants were first grown to the 2 to 4 leaf stage (GS 12/14). The plants were cultivated due to their individual requirements at 10-25° C. and 20-35° C. The plants were irrigated as required.
(§2) Here, the herbicidal compositions were suspended or emulsified in water as distribution medium and sprayed using finely distributing nozzles. 1% methylated seed oil (MSO) has been added as adjuvant to each of the solo and mixture treatments.
(§3) In the greenhouse experiments, the herbicidal activity for the individual herbicidal compositions (solo and mixture applications) was assessed 20/21 days after treatment (DAT).
(§4) The evaluation for the damage on undesired weeds caused by the chemical compositions was carried out using a scale from 0 to 100%, compared to the untreated control plants. Here, 0 means no damage and 100 means complete destruction of the plants.

Papaver rhoeas = assay: as above; type: in vivo; conditions: PAPRH
Protocol: as §1, §2, §3, §4

Sonchus arvensis = assay: as above; type: in vivo; conditions: SONAR, BBCH 12-14, Flumioxazin 0.5, Bifenox 168 g ai/ha
Protocol: as §1, §2, §3, §4

Mercuralis annua = assay: as above; type: in vivo; conditions: MERAN, BBCH 12-14, Saflufenacil 0.5, Bifenox 168 g ai/ha
Protocol: as §1, §2, §3, §4

Sorghum halepense = assay: as above; type: in vivo; conditions: SORHA, BBCH 12-14, Saflufenacil 4, Bifenox 168 g ai/ha
Protocol: as §1, §2, §3, §4

Polygonum aviculare = assay: as above; type: in vivo; conditions: POLAV, BBCH 12-14, Flumioxazin 4, Bifenox 168 g ai/ha
Protocol: as §1, §2, §3, §4

Ambrosia artemisiifolia = assay: as above; type: in vivo; conditions: AMBEL, BBCH 12-14, Saflufenacil 1, Bifenox 168 g ai/ha
Protocol: as §1, §2, §3, §4

Abutilon theophrasti = assay: as above; type: in vivo; conditions: ABUTH
Protocol: as §1, §2, §3, §4

Chenopodium album = assay: as above; type: in vivo; conditions: CHEAL, BBCH 12-14, Flumioxazin 1, Bifenox 168 g ai/ha
Protocol: as §1, §2, §3, §4

Convolvulus arvensis = assay: as above; type: in vivo; conditions: CONAR, BBCH 12-14, Saflufenacil 1, Bifenox 168 g ai/ha
Protocol: as §1, §2, §3, §4

HELAN Pacino = assay: Greenhouse experiment, crop safety of sunflower; type: in vivo, Helianthus annuus; conditions: BBCH 12-14, Flumioxazin 0.5, Bifenox 168 g ai/ha, scale 0 to 100%
Protocol: as §1, §2, §3, §4

HELAN w F(383)I = assay: Greenhouse experiment, crop safety of PPO inhibitor tolerant sunflower; type: in vivo, Helianthus annuus; conditions: BBCH 12-14, Flumioxazin 0.5, Bifenox 168 g ai/ha, scale 0 to 100%
Protocol: as §1, §2, §3, §4

## COC(=O)c1cc(Oc2ccc(Cl)cc2Cl)ccc1[N+](=O)[O-] [Bifenox, Methyl 5-(2,4-dichlorophenoxy)-2-nitrobenzoate]
Portulaca oleracea
  % Herbicidal activity: 10%
Papaver rhoeas; BBCH 12-14, Flumioxazin 0.5, Bifenox 168 g ai/ha
  % Herbicidal activity: 10%
Papaver rhoeas; BBCH 12-14, Saflufenacil 0.5, Bifenox 168 g ai/ha
  % Herbicidal activity: 5%
Sonchus arvensis
  % Herbicidal activity: 30%
Mercuralis annua
  % Herbicidal activity: 55%
Sorghum halepense
  % Herbicidal activity: 10%
Polygonum aviculare
  % Herbicidal activity: 20%
Ambrosia artemisiifolia
  % Herbicidal activity: 60%
Abutilon theophrasti; BBCH 12-14, Flumioxazin 2, Bifenox 168 g ai/ha
  % Herbicidal activity: 55%
Abutilon theophrasti; BBCH 12-14, Saflufenacil 1, Bifenox 168 g ai/ha
  % Herbicidal activity: 80%
Chenopodium album
  % Herbicidal activity: 20%
Convolvulus arvensis
  % Herbicidal activity: 75%
HELAN Pacino
  Observed crop damage 21 days after treatment: 15%
HELAN w F(383)I
  Observed crop damage 21 days after treatment: 5%
